#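 These data come from cells grown in 96-well plates and exposed to compound for 48 hours at five concentrations. At the GI50, growth is halved.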 The source made the active and inactive calls. No stated cut-off is given here; in the data, active = GI50 up to about 1.1 µM and inactive = higher.
# How the values were obtained:
# Test in all cases: NCI anticancer screen, dose series, 48 h
# 786-0 = test system: 786-0
# A498 = test system: A498
# A549 = test system: A549
# ACHN = test system: ACHN
# CAKI-1 = test system: CAKI-1
# CCRF-CEM = test system: CCRF-CEM
# COLO 205 = test system: COLO 205
# DLD-1 = test system: DLD-1
# DMS-114 = test system: DMS-114
# DMS-273 = test system: DMS-273
# EKVX = test system: EKVX
# HCC 2998 = test system: HCC 2998
# HCT-116 = test system: HCT-116
# HCT-15 = test system: HCT-15
# HL-60 = test system: HL-60
# HOP-18 = test system: HOP-18
# HOP-62 = test system: HOP-62
# HOP-92 = test system: HOP-92
# HT-29 = test system: HT-29
# IGROV-1 = test system: IGROV-1
# K562 = test system: K562
# KM-20L2 = test system: KM-20L2
# KM12 = test system: KM12
# LOX IMVI = test system: LOX IMVI
# LXFL 529 = test system: LXFL 529
# M14 = test system: M14
# M19-MEL = test system: M19-MEL
# MOLT-4 = test system: MOLT-4
# Malme-3M = test system: Malme-3M
# NCI-H226 = test system: NCI-H226
# NCI-H23 = test system: NCI-H23
# NCI-H460 = test system: NCI-H460
# NCI-H522 = test system: NCI-H522
# OVCAR-3 = test system: OVCAR-3
# OVCAR-4 = test system: OVCAR-4
# OVCAR-5 = test system: OVCAR-5
# OVCAR-8 = test system: OVCAR-8
# RXF 393 = test system: RXF 393
# RXF 631 = test system: RXF 631
# SF-268 = test system: SF-268
# SF-295 = test system: SF-295
# SF-539 = test system: SF-539
# SK-MEL-28 = test system: SK-MEL-28
# SK-MEL-2 = test system: SK-MEL-2
# SK-MEL-5 = test system: SK-MEL-5
# SK-OV-3 = test system: SK-OV-3
# SN12C = test system: SN12C
# SNB-19 = test system: SNB-19
# SNB-75 = test system: SNB-75
# SNB-78 = test system: SNB-78
# SR = test system: SR
# SW-620 = test system: SW-620
# TK-10 = test system: TK-10
# U-251 = test system: U-251
# UACC-257 = test system: UACC-257
# UACC-62 = test system: UACC-62
# UO-31 = test system: UO-31
# XF498 = test system: XF498
compound,measurement,setting,value
CCOC(=O)C1=C(NC(C)(C)C)OC/C1=N\NC(=O)Cc1ccccc1,GI50,786-0,> 100 µM (inactive)
same,GI50,A498,> 100 µM (inactive)
same,GI50,A549,> 100 µM (inactive)
same,GI50,ACHN,> 100 µM (inactive)
same,GI50,CAKI-1,> 100 µM (inactive)
same,GI50,CCRF-CEM,> 100 µM (inactive)
same,GI50,COLO 205,> 100 µM (inactive)
same,GI50,DLD-1,> 100 µM (inactive)
same,GI50,DMS-114,> 100 µM (inactive)
same,GI50,DMS-273,> 100 µM (inactive)
same,GI50,EKVX,> 100 µM (inactive)
same,GI50,HCC 2998,> 100 µM (inactive)
same,GI50,HCT-116,> 100 µM (inactive)
same,GI50,HCT-15,> 100 µM
same,GI50,HL-60,> 100 µM (inactive)
same,GI50,HOP-18,> 100 µM (inactive)
same,GI50,HOP-62,> 100 µM (inactive)
same,GI50,HOP-92,> 100 µM (inactive)
same,GI50,HT-29,> 100 µM (inactive)
same,GI50,IGROV-1,> 100 µM (inactive)
same,GI50,K562,> 100 µM (inactive)
same,GI50,KM-20L2,> 100 µM (inactive)
same,GI50,KM12,> 100 µM (inactive)
same,GI50,LOX IMVI,> 100 µM (inactive)
same,GI50,LXFL 529,> 100 µM (inactive)
same,GI50,M14,> 100 µM (inactive)
same,GI50,M19-MEL,> 100 µM (inactive)
same,GI50,MOLT-4,> 100 µM (inactive)
same,GI50,Malme-3M,> 100 µM (inactive)
same,GI50,NCI-H226,> 100 µM (inactive)
same,GI50,NCI-H23,> 100 µM (inactive)
same,GI50,NCI-H460,> 100 µM (inactive)
same,GI50,NCI-H522,> 100 µM (inactive)
same,GI50,OVCAR-3,> 100 µM (inactive)
same,GI50,OVCAR-4,> 100 µM (inactive)
same,GI50,OVCAR-5,> 100 µM (inactive)
same,GI50,OVCAR-8,> 100 µM (inactive)
same,GI50,RXF 393,> 100 µM (inactive)
same,GI50,RXF 631,> 100 µM (inactive)
same,GI50,SF-268,> 100 µM (inactive)
same,GI50,SF-295,> 100 µM (inactive)
same,GI50,SF-539,> 100 µM (inactive)
same,GI50,SK-MEL-28,> 100 µM (inactive)
same,GI50,SK-MEL-2,> 100 µM (inactive)
same,GI50,SK-MEL-5,> 100 µM (inactive)
same,GI50,SK-OV-3,> 100 µM (inactive)
same,GI50,SN12C,> 100 µM (inactive)
same,GI50,SNB-19,> 100 µM (inactive)
same,GI50,SNB-75,27.9 µM (inactive)
same,GI50,SNB-78,> 100 µM (inactive)
same,GI50,SR,> 100 µM (inactive)
same,GI50,SW-620,> 100 µM (inactive)
same,GI50,TK-10,> 100 µM (inactive)
same,GI50,U-251,> 100 µM (inactive)
same,GI50,UACC-257,> 100 µM (inactive)
same,GI50,UACC-62,> 100 µM (inactive)
same,GI50,UO-31,> 100 µM (inactive)
same,GI50,XF498,> 100 µM (inactive)
COC(=O)C(C(=O)C(=O)Nc1cccc([N+](=O)[O-])c1)c1nc2ccc([N+](=O)[O-])cc2nc1O (stereo not given),GI50,786-0,> 100 µM (inactive)
same,GI50,A498,> 100 µM (inactive)
same,GI50,A549,> 100 µM (inactive)
same,GI50,ACHN,> 100 µM (inactive)
same,GI50,CAKI-1,> 100 µM (inactive)
same,GI50,CCRF-CEM,> 100 µM (inactive)
same,GI50,COLO 205,> 100 µM (inactive)
same,GI50,DLD-1,> 100 µM (inactive)
same,GI50,DMS-114,> 100 µM (inactive)
same,GI50,DMS-273,> 100 µM (inactive)
same,GI50,EKVX,> 100 µM (inactive)
same,GI50,HCC 2998,> 100 µM (inactive)
same,GI50,HCT-116,> 100 µM (inactive)
same,GI50,HCT-15,> 100 µM
same,GI50,HL-60,> 100 µM (inactive)
same,GI50,HOP-18,> 100 µM (inactive)
same,GI50,HOP-62,> 100 µM (inactive)
same,GI50,HT-29,> 100 µM (inactive)
same,GI50,IGROV-1,> 100 µM (inactive)
same,GI50,K562,> 100 µM (inactive)
same,GI50,KM-20L2,> 100 µM (inactive)
same,GI50,KM12,> 100 µM (inactive)
same,GI50,LOX IMVI,> 100 µM (inactive)
same,GI50,LXFL 529,> 100 µM (inactive)
same,GI50,M14,> 100 µM (inactive)
same,GI50,M19-MEL,> 100 µM (inactive)
same,GI50,MOLT-4,> 100 µM (inactive)
same,GI50,Malme-3M,> 100 µM (inactive)
same,GI50,NCI-H226,> 100 µM (inactive)
same,GI50,NCI-H23,> 100 µM (inactive)
same,GI50,NCI-H460,> 100 µM (inactive)
same,GI50,NCI-H522,> 100 µM (inactive)
same,GI50,OVCAR-3,> 100 µM (inactive)
same,GI50,OVCAR-4,> 100 µM (inactive)
same,GI50,OVCAR-5,> 100 µM (inactive)
same,GI50,OVCAR-8,> 100 µM (inactive)
same,GI50,RXF 393,> 100 µM (inactive)
same,GI50,RXF 631,> 100 µM (inactive)
same,GI50,SF-268,> 100 µM (inactive)
same,GI50,SF-295,> 100 µM (inactive)
same,GI50,SF-539,> 100 µM (inactive)
same,GI50,SK-MEL-28,> 100 µM (inactive)
same,GI50,SK-MEL-2,> 100 µM (inactive)
same,GI50,SK-MEL-5,> 100 µM (inactive)
same,GI50,SK-OV-3,> 100 µM (inactive)
same,GI50,SN12C,> 100 µM (inactive)
same,GI50,SNB-19,> 100 µM (inactive)
same,GI50,SNB-75,70.6 µM (inactive)
same,GI50,SNB-78,> 100 µM (inactive)
same,GI50,SR,> 100 µM (inactive)
same,GI50,SW-620,> 100 µM (inactive)
same,GI50,TK-10,> 100 µM (inactive)
same,GI50,U-251,> 100 µM (inactive)
same,GI50,UACC-257,> 100 µM (inactive)
same,GI50,UACC-62,> 100 µM (inactive)
same,GI50,UO-31,> 100 µM (inactive)
same,GI50,XF498,> 100 µM (inactive)

# From ChEMBL document CHEMBL1201862, “PubChem BioAssay data set” (2004)
